Laboratory results published in patent US20260306476A1, “ANTIBACTERIAL COMPOUND PBT2” (priority 2022, published 2026).

Experiments:
[1] = tested on: Neisseria gonorrhoeae strain WHO Z; conditions: strain phenotype; cited from earlier work
Neisseria gonorrhoeae = test: Antibiotic resistance development test over 30 days; format: cell-based; conditions: control; 30 days of treatment
Protocol: FIG. 2: Antibiotic resistance development assay of PBT2.
Resistance development was tested over a 30 day period with PBT2 and using Kanamycin as a control.

[2] = tested on: Neisseria gonorrhoeae ATCC49226; conditions: cited from earlier work
[3] = tested on: Neisseria gonorrhoeae ATCC49226; test: MIC of PBT2 and comparators against CLSI reference strain; format: cell-based; conditions: ATCC49226, comparator antimicrobials
From the text: 13 multidrug resistant WHO strains of Neisseria gonorrhoeae were selected to cover antimicrobial resistance phenotypes to all the antibiotics currently used.

[4] = tested on: Neisseria gonorrhoeae strain WHO Z; test: Ex vivo Neisseria gonorrhoeae infection of human cervical (Pex) cells; format: cell-based
From the text: FIG. 4: Chart indicating PBT2 can cure Neisseria gonorrhoeae infection of human cervical (Pex) cells. […] Ceftriaxone (CRO, positive control) is currently recommended for gonorrhoea treatment. Veh—0.1% DMSO vehicle control; UT—untreated; * p<0.0001 versus vehicle for CRO or PBT2 treatment.
To assess the ability of PBT2 to cure an established gonococcal infection in a human ex vivo system, primary human cervical epithelial (Pex) cells were challenged with Neisseria gonorrhoeae strain WHO Z for 90 min and then treated with 0.1% DMSO (vehicle control), PBT2 (0.016 mg/L to 4.695 mg/L), or ceftriaxone (0.5 mg/L, positive control) for 24 h. Viable gonococci were then enumerated. […] PBT2-induced Pex cell cytotoxicity was not observed during the assay.

[5] = tested on: Neisseria gonorrhoeae strain WHO Z; test: MIC of Triton X-100 with/without PBT2; format: cell-based
From the text: Without wishing to be bound by theory, the inventors hypothesise that this may due to the fact PBT2 is a derivative of the iron chelator clioquinol and PBT2 has the capacity to chelate a range of heavy metals including iron. Genes encoding metal homeostasis proteins (blue dots) are presented in the volcano plot (FIG. 3). Metal homeostasis was previously identified as a crucial feature of gonococcal biology, and therefore it is postulated this may be an “Achilles' heel” with respect to Neisseria gonorrhoeae ionophore sensitivity. […] MpeR is an iron-repressed, AraC-like protein that regulates the mtr efflux locus (involved in antimicrobial susceptibility) in Neisseria gonorrhoeae. Up-regulation of mpeR (e. g. by PBT2) down-regulates MtrF and, in turn, would increase Neisseria gonorrhoeae sensitivity to the antimicrobial detergent, Triton X-100 (22). […] Thus, without wishing to be bound to theory, the inventors hypothesise that PBT2 may influence bacterial iron homeostasis and trigger general defence mechanisms, such as Mtr-mediated antimicrobial efflux, but the Mtr-system may be unable to protect against PBT2.

[6] = tested on: vancomycin-resistant Enterococcus (VRE); conditions: in the absence of an antibiotic; cited from earlier work
[7] = tested on: methicillin-resistant Staphylococcus aureus (MRSA); conditions: in the absence of an antibiotic; cited from earlier work
[8] = tested on: erythromycin-resistant group A Streptococcus (GAS); conditions: in the absence of an antibiotic; cited from earlier work
[9] = tested on: Streptococcus uberis (S. uberis); conditions: in the absence of an antibiotic; cited from earlier work

Compound: O=C(O)c1cn(C2CC2)c2cc(N3CCNCC3)c(F)cc2c1=O [Ciprofloxacin]
- resistance of WHO Z [1]: resistant

Compound: NC[C@H]1O[C@H](O[C@H]2[C@H](O)[C@@H](O[C@H]3O[C@H](CO)[C@@H](O)[C@H](N)[C@H]3O)[C@H](N)C[C@@H]2N)[C@H](O)[C@@H](O)[C@@H]1O [Kanamycin, reference compound]
- development of resistance to kanamycin (Neisseria gonorrhoeae): development of resistance

Compound: CN(C)[C@@H]1C(O)=C(C(N)=O)C(=O)[C@@]2(O)C(O)=C3C(=O)c4c(O)cccc4[C@@](C)(O)[C@H]3C[C@@H]12 [Tetracycline, reference compound]
- CLSI agar dilution MIC QC range [2]: 0.25 to 1 µg/mL
- resistance of WHO Z [1]: resistant
- MIC ([3]; agar dilution): 0.25 µg/mL
- MIC ([3]; broth dilution): 0.25 µg/mL

Compound: CC[C@H]1OC(=O)[C@H](C)[C@@H](O[C@H]2C[C@@](C)(OC)[C@@H](O)[C@H](C)O2)[C@H](C)[C@@H](O[C@@H]2O[C@H](C)C[C@H](N(C)C)[C@H]2O)[C@](C)(O)C[C@@H](C)CN(C)[C@H](C)[C@@H](O)[C@]1(C)O [azithromycin]
- resistance of WHO Z [1]: resistant

Compound: C=CC1=C(C(=O)O)N2C(=O)[C@@H](NC(=O)/C(=N\OCC(=O)O)c3csc(N)n3)[C@H]2SC1 [cefixime]
- resistance of WHO Z [1]: resistant

Compound: CO/N=C(\C(=O)N[C@@H]1C(=O)N2C(C(=O)O)=C(CSc3nc(=O)c(=O)[nH]n3C)CS[C@H]12)c1csc(N)n1 [ceftriaxone, reference compound]
- susceptibility of WHO Z ([4]; ceftriaxone positive control (0.5 mg/L)): susceptible
- p versus vehicle ([4]; survival at 24 h, FIG. 4, CRO 0.5 mg/L): < 0.0001
- resistance of WHO Z [1]: resistant

Compound: CC1(C)S[C@@H]2[C@H](NC(=O)Cc3ccccc3)C(=O)N2[C@H]1C(=O)O [penicillin G]
- resistance of WHO Z [1]: resistant

Compound: Triton X-100
- MIC of Triton X-100 ([5]; in the presence of 0.156 mg/L (sub-MIC) PBT2): 125 µg/mL
- MIC of Triton X-100 ([5]; without PBT2): > 1000 µg/mL

Compound: zinc [reference compound]
- antibacterial activity [6]: neither PBT2 nor zinc alone displayed antibacterial activity which would be suitable to treat an infection
- antibacterial activity [7]: neither PBT2 nor zinc alone displayed antibacterial activity which would be suitable to treat an infection
- antibacterial activity [8]: neither PBT2 nor zinc alone displayed antibacterial activity which would be suitable to treat an infection
- antibacterial activity [9]: neither PBT2 nor zinc alone displayed antibacterial activity which would be suitable to treat an infection
